Read-outs that look alike come from different tables or passages of the source.
Legend:
Format in all cases: binding
various enzymes [1] = biological target: various enzymes (Homo sapiens, UniProt P00519, E255K)
Experimental: (§1) Ambit profiling was conducted in accordance with the manufacturer's instructions.

various enzymes [2] = biological target: various enzymes (Homo sapiens, UniProt P42336, C420R)
Experimental: as §1

various enzymes [3] = biological target: various enzymes (Homo sapiens, UniProt P00533, T790M)
Experimental: as §1

various enzymes [4] = biological target: various enzymes (Homo sapiens, UniProt Q02750); details: compound 1 uM
Experimental: as §1

various enzymes [5] = biological target: various enzymes (Homo sapiens, UniProt O15197); details: compound 1 uM
Experimental: as §1

various enzymes [6] = biological target: various enzymes (Homo sapiens, UniProt P57058); details: compound 1 uM
Experimental: as §1

various enzymes [7] = biological target: various enzymes (Homo sapiens, UniProt Q15759); details: compound 1 uM
Experimental: as §1

various enzymes [8] = biological target: various enzymes (Homo sapiens, UniProt P51957); details: compound 1 uM
Experimental: as §1

various enzymes [9] = biological target: various enzymes (Homo sapiens, UniProt P49137); details: compound 1 uM
Experimental: as §1

various enzymes [10] = biological target: various enzymes (Homo sapiens, UniProt P36888, D835Y)
Experimental: as §1

various enzymes [11] = biological target: various enzymes (Homo sapiens, UniProt Q8IW41); details: compound 1 uM
Experimental: as §1

various enzymes [12] = biological target: various enzymes (Homo sapiens, UniProt Q9NSY1); details: compound 1 uM
Experimental: as §1

various enzymes [13] = biological target: various enzymes (Homo sapiens, UniProt Q9NY57); details: compound 1 uM
Experimental: as §1

various enzymes [14] = biological target: various enzymes (Homo sapiens, UniProt Q13233); details: compound 1 uM
Experimental: as §1

various enzymes [15] = biological target: T1, various enzymes (Homo sapiens, UniProt O60285); details: compound 1 uM
T1 sequence (O60285 1-661): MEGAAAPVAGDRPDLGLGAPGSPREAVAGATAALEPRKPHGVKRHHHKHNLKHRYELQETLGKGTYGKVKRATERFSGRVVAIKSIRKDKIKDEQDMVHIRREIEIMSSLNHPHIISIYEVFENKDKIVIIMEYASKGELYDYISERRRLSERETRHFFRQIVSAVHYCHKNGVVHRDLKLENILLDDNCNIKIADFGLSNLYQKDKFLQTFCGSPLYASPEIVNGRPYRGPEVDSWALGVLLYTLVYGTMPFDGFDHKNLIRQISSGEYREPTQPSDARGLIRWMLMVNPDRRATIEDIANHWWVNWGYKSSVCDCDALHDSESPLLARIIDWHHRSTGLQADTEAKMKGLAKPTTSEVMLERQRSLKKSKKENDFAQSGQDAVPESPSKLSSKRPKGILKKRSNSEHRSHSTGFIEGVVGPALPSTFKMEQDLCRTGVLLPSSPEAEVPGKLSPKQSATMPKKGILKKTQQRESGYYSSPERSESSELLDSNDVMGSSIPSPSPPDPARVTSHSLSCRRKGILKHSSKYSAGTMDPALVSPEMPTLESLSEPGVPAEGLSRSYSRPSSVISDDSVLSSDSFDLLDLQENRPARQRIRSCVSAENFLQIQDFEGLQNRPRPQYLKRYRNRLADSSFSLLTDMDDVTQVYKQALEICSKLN
Experimental: as §1

various enzymes [16] = biological target: various enzymes (Homo sapiens, UniProt O14920); details: compound 1 uM
Experimental: as §1

various enzymes [17] = biological target: various enzymes (Homo sapiens, UniProt Q13464); details: compound 1 uM
Experimental: as §1

various enzymes [18] = biological target: various enzymes (Homo sapiens, UniProt Q8TDC3); details: compound 1 uM
Experimental: as §1

various enzymes [19] = biological target: various enzymes (Homo sapiens, UniProt Q9P1W9); details: compound 1 uM
Experimental: as §1

various enzymes [20] = biological target: various enzymes (Homo sapiens, UniProt P54762); details: compound 1 uM
Experimental: as §1

various enzymes [21] = biological target: various enzymes (Homo sapiens, UniProt P36894); details: compound 1 uM
Experimental: as §1

various enzymes [22] = biological target: T2, various enzymes (Homo sapiens, UniProt O14757); details: compound 1 uM
T2 sequence (O14757 1-476): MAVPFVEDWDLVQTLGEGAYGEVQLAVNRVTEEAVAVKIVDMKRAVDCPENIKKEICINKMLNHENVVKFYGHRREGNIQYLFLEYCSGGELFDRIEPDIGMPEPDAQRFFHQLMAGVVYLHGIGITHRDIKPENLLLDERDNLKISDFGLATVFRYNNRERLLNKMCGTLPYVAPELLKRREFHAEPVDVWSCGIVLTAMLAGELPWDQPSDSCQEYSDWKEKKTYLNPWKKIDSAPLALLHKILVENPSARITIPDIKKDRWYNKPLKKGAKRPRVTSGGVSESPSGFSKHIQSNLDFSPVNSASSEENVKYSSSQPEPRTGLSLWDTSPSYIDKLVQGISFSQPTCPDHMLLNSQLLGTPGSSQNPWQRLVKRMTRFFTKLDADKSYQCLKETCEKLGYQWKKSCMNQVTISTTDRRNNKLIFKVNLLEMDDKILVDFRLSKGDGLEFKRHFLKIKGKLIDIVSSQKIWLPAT
Experimental: as §1

various enzymes [23] = biological target: various enzymes (Homo sapiens, UniProt Q14004); details: compound 1 uM
Experimental: as §1

various enzymes [24] = biological target: various enzymes (Homo sapiens, UniProt Q9BX84); details: compound 1 uM
Experimental: as §1

various enzymes [25] = biological target: various enzymes (Homo sapiens, UniProt Q9Y6M4); details: compound 1 uM
Experimental: as §1

various enzymes [26] = biological target: various enzymes (Homo sapiens, UniProt P11802); details: compound 1 uM
Experimental: as §1

various enzymes [27] = biological target: various enzymes (Homo sapiens, UniProt P51956); details: compound 1 uM
Experimental: as §1

various enzymes [28] = biological target: various enzymes (Homo sapiens, UniProt Q9Y3S1); details: compound 1 uM
Experimental: as §1

Sequence of various enzymes (Homo sapiens, UniProt P11802) (P11802 whole entry): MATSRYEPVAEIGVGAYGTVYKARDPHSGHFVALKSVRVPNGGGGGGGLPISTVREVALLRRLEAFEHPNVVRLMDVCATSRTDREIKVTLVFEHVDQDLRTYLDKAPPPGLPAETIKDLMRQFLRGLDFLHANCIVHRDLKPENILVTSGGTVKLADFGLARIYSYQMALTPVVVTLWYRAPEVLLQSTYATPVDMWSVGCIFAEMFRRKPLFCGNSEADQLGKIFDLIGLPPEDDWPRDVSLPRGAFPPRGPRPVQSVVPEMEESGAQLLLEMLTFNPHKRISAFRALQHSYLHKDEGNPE
Sequence of various enzymes (Homo sapiens, UniProt P57058) (P57058 whole entry): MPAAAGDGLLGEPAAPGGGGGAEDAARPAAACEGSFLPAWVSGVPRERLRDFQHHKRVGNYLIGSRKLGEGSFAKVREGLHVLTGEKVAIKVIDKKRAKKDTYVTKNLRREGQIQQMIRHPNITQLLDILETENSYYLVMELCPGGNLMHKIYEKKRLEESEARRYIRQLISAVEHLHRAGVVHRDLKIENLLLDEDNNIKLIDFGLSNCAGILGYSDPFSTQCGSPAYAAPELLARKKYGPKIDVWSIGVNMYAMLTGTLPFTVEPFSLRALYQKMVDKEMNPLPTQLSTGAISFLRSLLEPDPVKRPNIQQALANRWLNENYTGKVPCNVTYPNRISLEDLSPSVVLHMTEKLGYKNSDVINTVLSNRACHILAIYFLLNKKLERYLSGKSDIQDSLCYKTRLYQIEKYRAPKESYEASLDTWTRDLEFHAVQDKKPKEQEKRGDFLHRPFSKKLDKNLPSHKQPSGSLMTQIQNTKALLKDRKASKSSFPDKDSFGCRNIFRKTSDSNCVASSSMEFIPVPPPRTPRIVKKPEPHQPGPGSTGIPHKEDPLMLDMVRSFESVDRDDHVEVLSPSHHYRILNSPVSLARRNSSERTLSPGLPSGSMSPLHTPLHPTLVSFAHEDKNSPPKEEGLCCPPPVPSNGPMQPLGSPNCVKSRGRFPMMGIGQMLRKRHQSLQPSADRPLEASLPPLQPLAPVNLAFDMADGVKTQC
Sequence of various enzymes (Homo sapiens, UniProt Q8IW41) (Q8IW41 whole entry): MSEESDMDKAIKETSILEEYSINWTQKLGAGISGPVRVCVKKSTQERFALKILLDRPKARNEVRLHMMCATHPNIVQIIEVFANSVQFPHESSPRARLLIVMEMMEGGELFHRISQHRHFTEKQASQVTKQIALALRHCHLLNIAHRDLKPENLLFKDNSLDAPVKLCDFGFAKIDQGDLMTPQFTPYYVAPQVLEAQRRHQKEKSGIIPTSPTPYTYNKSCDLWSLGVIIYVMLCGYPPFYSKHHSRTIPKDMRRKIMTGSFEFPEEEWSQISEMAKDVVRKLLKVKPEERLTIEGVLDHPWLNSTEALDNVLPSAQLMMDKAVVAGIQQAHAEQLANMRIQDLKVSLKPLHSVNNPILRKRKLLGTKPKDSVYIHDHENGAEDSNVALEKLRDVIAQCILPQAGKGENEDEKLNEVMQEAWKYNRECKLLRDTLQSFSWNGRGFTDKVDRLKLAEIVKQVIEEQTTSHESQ
Sequence of various enzymes (Homo sapiens, UniProt P36894) (P36894 24-532): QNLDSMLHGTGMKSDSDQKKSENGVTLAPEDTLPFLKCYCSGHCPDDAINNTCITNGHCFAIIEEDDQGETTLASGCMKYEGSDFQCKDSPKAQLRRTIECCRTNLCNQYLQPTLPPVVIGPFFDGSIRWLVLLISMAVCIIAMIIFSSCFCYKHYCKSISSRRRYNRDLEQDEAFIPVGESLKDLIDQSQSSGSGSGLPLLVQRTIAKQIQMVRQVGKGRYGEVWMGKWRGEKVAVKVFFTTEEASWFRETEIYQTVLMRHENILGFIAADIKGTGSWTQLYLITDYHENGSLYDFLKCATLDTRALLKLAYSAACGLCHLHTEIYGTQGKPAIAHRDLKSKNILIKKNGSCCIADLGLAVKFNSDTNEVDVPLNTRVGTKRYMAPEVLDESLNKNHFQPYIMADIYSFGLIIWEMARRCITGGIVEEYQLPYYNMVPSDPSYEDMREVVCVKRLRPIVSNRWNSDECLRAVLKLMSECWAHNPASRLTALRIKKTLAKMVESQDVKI
Sequence of various enzymes (Homo sapiens, UniProt O15197) (O15197 32-1021): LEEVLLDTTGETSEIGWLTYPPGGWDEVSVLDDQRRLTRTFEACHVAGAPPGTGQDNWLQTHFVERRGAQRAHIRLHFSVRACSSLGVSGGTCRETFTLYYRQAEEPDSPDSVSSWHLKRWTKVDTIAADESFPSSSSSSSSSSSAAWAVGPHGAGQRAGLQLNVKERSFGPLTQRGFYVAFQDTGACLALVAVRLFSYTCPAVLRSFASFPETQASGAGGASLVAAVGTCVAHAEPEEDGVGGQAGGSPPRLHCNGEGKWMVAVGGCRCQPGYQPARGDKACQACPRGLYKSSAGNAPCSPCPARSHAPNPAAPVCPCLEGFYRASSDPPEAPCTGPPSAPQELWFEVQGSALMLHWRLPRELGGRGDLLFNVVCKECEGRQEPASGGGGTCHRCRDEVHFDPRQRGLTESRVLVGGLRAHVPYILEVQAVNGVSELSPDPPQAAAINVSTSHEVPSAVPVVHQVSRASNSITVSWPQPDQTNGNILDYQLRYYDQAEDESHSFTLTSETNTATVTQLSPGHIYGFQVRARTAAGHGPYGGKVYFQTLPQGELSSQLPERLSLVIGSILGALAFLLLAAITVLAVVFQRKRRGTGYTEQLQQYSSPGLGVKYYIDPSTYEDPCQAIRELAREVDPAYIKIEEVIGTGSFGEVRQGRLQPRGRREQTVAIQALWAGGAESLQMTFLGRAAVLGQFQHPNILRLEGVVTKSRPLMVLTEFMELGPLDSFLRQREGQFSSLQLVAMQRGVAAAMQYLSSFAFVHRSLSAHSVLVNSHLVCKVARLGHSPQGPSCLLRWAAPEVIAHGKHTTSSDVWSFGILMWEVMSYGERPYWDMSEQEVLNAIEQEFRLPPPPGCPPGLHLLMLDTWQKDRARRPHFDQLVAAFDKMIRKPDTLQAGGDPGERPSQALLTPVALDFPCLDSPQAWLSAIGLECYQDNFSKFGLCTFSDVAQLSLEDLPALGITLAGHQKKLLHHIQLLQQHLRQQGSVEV
Sequence of various enzymes (Homo sapiens, UniProt Q9NSY1) (Q9NSY1 whole entry): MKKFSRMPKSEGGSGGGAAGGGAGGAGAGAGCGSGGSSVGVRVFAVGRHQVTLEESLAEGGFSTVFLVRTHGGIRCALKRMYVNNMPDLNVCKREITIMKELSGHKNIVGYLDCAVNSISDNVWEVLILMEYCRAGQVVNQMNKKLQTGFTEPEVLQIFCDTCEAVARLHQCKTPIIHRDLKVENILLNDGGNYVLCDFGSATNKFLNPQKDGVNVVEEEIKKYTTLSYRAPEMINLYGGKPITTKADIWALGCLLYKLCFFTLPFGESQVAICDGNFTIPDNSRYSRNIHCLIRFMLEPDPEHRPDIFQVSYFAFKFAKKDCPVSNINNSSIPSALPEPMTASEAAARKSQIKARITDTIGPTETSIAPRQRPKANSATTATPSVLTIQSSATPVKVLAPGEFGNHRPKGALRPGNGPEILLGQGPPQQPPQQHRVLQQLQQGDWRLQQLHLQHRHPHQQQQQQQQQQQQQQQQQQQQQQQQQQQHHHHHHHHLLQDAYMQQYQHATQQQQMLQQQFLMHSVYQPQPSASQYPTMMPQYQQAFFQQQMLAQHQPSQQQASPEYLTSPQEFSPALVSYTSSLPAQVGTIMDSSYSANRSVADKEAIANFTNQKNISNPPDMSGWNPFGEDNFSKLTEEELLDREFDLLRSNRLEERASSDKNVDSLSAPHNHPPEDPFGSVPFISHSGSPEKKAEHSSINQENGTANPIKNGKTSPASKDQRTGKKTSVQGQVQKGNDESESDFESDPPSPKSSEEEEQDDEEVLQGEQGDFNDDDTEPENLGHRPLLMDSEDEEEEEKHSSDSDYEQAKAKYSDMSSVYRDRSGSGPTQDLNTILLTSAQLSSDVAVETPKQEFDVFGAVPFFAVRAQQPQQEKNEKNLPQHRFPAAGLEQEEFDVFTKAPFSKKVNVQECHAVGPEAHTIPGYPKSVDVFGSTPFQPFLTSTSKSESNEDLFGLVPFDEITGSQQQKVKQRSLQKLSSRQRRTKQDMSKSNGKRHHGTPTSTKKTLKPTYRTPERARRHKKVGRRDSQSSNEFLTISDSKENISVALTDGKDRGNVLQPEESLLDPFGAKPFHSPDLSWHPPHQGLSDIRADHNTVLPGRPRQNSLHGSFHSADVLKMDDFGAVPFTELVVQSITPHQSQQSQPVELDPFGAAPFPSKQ
Sequence of various enzymes (Homo sapiens, UniProt Q9Y6M4) (Q9Y6M4 whole entry): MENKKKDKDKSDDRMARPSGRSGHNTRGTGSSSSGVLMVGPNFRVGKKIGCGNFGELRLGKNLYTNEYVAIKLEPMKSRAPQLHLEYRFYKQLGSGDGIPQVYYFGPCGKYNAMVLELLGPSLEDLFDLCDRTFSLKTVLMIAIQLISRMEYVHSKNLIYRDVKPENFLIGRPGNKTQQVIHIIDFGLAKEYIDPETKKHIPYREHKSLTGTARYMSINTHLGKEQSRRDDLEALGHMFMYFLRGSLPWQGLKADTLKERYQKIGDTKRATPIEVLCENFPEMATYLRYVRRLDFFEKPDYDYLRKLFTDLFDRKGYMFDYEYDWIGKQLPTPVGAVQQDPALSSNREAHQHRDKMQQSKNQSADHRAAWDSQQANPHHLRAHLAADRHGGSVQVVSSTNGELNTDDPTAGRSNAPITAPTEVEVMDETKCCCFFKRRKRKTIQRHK
Sequence of various enzymes (Homo sapiens, UniProt Q02750) (Q02750 whole entry): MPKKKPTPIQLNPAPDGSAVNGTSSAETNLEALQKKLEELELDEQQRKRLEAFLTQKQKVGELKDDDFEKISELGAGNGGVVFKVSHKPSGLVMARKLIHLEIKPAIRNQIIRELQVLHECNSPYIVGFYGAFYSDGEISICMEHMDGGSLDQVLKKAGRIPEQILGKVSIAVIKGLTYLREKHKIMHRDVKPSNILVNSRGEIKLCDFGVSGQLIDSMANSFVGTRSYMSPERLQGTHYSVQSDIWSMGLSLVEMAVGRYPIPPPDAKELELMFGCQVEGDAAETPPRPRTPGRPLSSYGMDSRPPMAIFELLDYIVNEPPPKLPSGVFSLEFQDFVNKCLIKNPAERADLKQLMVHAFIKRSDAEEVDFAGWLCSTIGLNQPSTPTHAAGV

| Compound | Ambit profiling: MEK1 (various enzymes [4]) | Ambit profiling: HUNK (various enzymes [6]) | Ambit profiling: p38-beta (various enzymes [7]) | Ambit profiling: NEK4 (various enzymes [8]) | Ambit profiling: MAPKAPK2 (various enzymes [9]) | Ambit profiling: MAPKAPK5 (various enzymes [11]) | Ambit profiling: BIKE (various enzymes [12]) | Ambit profiling: YANK2 (various enzymes [13]) | Ambit profiling: MAP3K1 (various enzymes [14]) | Ambit profiling: ARK5 (various enzymes [15]) | Ambit profiling: IKK-beta (various enzymes [16]) | Ambit profiling: ROCK1 (various enzymes [17]) | Ambit profiling: BRSK1 (various enzymes [18]) | Ambit profiling: PIM2 (various enzymes [19]) | Ambit profiling: EPHB1 (various enzymes [20]) | Ambit profiling: BMPR1A (various enzymes [21]) | Ambit profiling: CHEK1 (various enzymes [22]) | Ambit profiling: CDC2L5 (various enzymes [23]) | Ambit profiling: TRPM6 (various enzymes [24]) | Ambit profiling: CSNK1G3 (various enzymes [25]) | other results |
| --- | --- | --- | --- | --- | --- | --- | --- | --- | --- | --- | --- | --- | --- | --- | --- | --- | --- | --- | --- | --- | --- |
| COc1c2c(nn1C)CN(C(C)C)C(=O)CCCn1cc(c(C(F)(F)F)n1)-c1c[nH]c3ncc-2cc13 [Compound 50, (Z)-5-isopropyl-35-methoxy-31-methyl-13-(trifluoromethyl)-11H,21H,31H-5-aza-2(3,5)-pyrrolo[2,3-b]pyridina-1(4,1),3(4,3)-dipyrazolacyclononaphan-6-one] | 12 | 8 | 83 | 100 | 100 | 100 | 10 | 45 | 72 | 100 | 87 | 79 | 89 | 100 | 48 | 88 | 100 | 89 | 100 | 79 | Ambit profiling: ABL1(E255K)-phosphorylated (various enzymes [1]): 2; Ambit profiling: PIK3CA(C420R) (various enzymes [2]): 91; Ambit profiling: EGFR(T790M) (various enzymes [3]): 32; Ambit profiling: EPH86 (various enzymes [5]): 0.7; Ambit profiling: FLT3(D835Y) (various enzymes [10]): 0.7; Ambit profiling: CDK4 (various enzymes [26]): 88; Ambit profiling: CDK4-cyclinD1 (various enzymes [26]): 76; Ambit profiling: CDK4-cyclinD3 (various enzymes [26]): 81; Ambit profiling: NEK3 (various enzymes [27]): 51; Ambit profiling: WNK2 (various enzymes [28]): 46 |
| CC(C)N1Cc2nn(C)cc2-c2cnc3[nH]cc(c3c2)-c2cn(nc2C(F)(F)F)CCCC1=O [Compound 45, (Z)-5-isopropyl-31-methyl-13-(trifluoromethyl)-11H,21H,31H-5-aza-2(3,5)-pyrrolo[2,3-b]pyridina-1(4,1),3(4,3)-dipyrazolacyclononaphan-6-one] | 17 | 16 | 100 | 93 | 100 | 100 | 1.2 | 100 | 95 | 100 | 100 | 95 | 100 | 100 | 51 | 97 | 100 | 99 | 83 | 100 | Ambit profiling: ABL1(E255K)-phosphorylated (various enzymes [1]; compound 1 uM): 7.7; Ambit profiling: PIK3CA(C420R) (various enzymes [2]; compound 1 uM): 100; Ambit profiling: EGFR(T790M) (various enzymes [3]; compound 1 uM): 65; Ambit profiling: EPHB6 (various enzymes [5]): 4.8; Ambit profiling: FLT3(D835Y) (various enzymes [10]; compound 1 uM): 1.3; Ambit profiling: CDK4 (various enzymes [26]): 100; Ambit profiling: CDK4-cyclinD1 (various enzymes [26]): 53; Ambit profiling: CDK4-cyclinD3 (various enzymes [26]): 100; Ambit profiling: NEK3 (various enzymes [27]): 50; Ambit profiling: WNK2 (various enzymes [28]): 64 |

Reference: patent US12157741B2, “Macrocyclic inhibitors of DYRK1A” (DANA-FARBER CANCER INSTITUTE, INC., priority 2018, dated 2024)
